Assay results taken from ChEMBL document CHEMBL5212743, “Selectivity Literature for EUbOPEN Chemogenomics Library wave 3” (2023).
One block for each molecule: values may come before it.

Legend:
[1] = target: Mitogen-activated protein kinase kinase kinase 19 (Homo sapiens, UniProt Q56UN5); assay: Selectivity interaction (KinomeScan (DiscoverX, competition-binding assay)) EUB0000305b MAP3K19
[2] = target: Phosphatidylinositol 4,5-bisphosphate 3-kinase catalytic subunit gamma isoform (Homo sapiens, UniProt P48736); assay: Selectivity interaction (KinomeScan (DiscoverX, competition-binding assay)) EUB0000178b PIK3CG
Phosphatidylinositol 4,5-bisphosphate 3-kinase catalytic subunit gamma isoform, sequence (P48736 whole entry, canonical isoform): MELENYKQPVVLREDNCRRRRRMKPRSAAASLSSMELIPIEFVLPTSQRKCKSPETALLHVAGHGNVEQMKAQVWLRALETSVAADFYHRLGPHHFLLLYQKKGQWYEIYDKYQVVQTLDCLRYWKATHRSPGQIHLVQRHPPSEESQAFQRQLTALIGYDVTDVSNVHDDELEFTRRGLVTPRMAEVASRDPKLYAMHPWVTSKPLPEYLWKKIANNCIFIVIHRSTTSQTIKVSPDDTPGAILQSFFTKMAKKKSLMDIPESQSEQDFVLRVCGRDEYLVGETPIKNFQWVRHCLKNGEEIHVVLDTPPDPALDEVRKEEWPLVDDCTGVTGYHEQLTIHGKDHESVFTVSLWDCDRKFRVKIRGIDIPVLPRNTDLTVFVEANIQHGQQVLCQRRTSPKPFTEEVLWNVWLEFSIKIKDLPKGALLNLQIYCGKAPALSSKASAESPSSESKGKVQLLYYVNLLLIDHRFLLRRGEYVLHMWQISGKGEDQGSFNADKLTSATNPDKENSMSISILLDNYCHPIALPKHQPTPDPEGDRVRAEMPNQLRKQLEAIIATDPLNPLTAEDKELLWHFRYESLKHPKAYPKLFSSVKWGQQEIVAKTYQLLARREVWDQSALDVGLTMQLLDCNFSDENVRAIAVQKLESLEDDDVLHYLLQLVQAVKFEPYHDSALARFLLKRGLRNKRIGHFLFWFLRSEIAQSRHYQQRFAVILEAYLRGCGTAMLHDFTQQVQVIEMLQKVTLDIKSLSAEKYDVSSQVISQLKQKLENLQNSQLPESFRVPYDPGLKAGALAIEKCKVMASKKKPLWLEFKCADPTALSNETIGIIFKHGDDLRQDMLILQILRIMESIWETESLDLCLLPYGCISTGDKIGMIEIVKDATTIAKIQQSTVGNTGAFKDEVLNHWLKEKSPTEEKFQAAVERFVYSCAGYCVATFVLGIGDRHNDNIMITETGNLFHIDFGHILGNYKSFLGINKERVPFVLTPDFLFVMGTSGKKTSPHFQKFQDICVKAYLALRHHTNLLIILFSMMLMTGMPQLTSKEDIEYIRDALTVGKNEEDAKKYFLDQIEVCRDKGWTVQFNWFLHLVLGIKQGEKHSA

[3] = target: T1, Mitogen-activated protein kinase kinase kinase 19 (Homo sapiens) (UniProt Q56UN5); assay: Selectivity interaction (KinomeScan (DiscoverX)) EUB0000702a MAP3K19; conditions: at 1 µM
T1 sequence (whole entry): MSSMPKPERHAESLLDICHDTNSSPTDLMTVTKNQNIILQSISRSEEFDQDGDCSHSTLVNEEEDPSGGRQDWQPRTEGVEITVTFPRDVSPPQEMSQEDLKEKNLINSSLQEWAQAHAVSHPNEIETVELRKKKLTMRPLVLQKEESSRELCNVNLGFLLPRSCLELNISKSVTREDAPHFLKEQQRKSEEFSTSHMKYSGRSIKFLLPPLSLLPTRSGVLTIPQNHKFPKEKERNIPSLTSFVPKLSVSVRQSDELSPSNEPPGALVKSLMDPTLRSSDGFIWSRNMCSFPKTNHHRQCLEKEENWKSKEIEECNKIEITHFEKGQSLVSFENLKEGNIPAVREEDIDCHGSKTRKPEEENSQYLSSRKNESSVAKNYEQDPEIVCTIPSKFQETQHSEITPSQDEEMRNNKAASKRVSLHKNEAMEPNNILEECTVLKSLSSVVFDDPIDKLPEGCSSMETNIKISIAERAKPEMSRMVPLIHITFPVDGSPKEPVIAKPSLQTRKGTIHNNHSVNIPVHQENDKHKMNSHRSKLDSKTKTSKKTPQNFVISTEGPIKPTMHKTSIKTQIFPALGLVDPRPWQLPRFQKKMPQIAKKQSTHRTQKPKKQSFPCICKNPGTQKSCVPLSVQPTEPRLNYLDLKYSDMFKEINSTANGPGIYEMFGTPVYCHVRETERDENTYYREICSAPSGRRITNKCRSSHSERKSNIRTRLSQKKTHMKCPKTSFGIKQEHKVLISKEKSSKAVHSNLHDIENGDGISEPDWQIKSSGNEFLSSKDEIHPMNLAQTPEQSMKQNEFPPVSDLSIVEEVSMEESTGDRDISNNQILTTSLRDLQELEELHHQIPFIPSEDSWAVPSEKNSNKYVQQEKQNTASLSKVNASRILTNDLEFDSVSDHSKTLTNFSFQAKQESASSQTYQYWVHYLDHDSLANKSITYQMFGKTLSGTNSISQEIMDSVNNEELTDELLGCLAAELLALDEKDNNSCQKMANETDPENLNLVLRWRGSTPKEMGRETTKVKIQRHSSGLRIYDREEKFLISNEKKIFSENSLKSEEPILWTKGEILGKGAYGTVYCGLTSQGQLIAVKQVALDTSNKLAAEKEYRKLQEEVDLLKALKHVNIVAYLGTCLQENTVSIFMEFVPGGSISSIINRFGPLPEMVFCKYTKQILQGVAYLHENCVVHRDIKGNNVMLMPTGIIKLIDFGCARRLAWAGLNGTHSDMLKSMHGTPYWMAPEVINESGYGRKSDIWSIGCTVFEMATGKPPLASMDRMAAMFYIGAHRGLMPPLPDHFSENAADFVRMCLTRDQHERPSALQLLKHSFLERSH

[4] = target: T2, Dual specificity mitogen-activated protein kinase kinase 5 (Homo sapiens) (UniProt Q13163); conditions: at 1 µM
T2 sequence (whole entry): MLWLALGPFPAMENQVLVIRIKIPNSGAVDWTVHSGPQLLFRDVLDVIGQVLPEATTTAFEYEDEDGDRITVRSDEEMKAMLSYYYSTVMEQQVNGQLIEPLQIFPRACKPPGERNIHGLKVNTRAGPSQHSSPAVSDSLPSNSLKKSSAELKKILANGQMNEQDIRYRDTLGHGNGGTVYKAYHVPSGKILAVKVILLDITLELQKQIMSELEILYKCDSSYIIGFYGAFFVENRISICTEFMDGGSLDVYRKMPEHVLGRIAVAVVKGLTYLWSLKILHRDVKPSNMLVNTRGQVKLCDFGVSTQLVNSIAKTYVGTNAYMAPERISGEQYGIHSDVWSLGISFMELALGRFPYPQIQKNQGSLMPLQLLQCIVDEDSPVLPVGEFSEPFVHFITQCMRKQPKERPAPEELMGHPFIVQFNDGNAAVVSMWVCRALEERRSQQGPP

[5] = target: Serine/threonine-protein kinase 16 (Homo sapiens, UniProt O75716); assay: Selectivity interaction (KinomeScan (DiscoverX)) EUB0000138c STK16; conditions: at 100 nM
Serine/threonine-protein kinase 16, sequence (O75716 whole entry): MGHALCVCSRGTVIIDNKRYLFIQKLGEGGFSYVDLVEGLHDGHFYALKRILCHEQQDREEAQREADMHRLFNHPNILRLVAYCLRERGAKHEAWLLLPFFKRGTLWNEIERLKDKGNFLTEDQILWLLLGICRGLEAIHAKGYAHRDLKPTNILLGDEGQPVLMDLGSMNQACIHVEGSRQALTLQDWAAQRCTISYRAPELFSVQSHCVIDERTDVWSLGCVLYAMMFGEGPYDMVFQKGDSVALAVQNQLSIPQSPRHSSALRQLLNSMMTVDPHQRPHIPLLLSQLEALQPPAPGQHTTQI

- Kd [1]: 9.6 nM
SMILES: C[C@H](c1ccnc(Nc2nc3ccc(-c4cc(N(C)C)ncn4)cc3[nH]2)c1)N1CCN(C(=O)CC(F)(F)F)CC1 [BAY-985]

- Kd [2]: 8.4 nM
SMILES: CN1C(=O)c2sccc2N(C)c2nc(Nc3ccc(S(N)(=O)=O)cc3)ncc21

- % of control [3]: 0.4%
SMILES: CN(c1ccnc(CNc2nc(Nc3ccc4c(c3)CC(=O)N4)ncc2C(F)(F)F)n1)S(C)(=O)=O [PF-00911705]

SMILES: CCOc1cn(-c2ccc(F)cc2C)nc1C(=O)Nc1ccc(Oc2ccnc3cc(OC)c(OC)cc23)c(F)c1
- % of control [4]: < 10%

- % of control [5]: 7.7%
SMILES: CNC(=O)c1ccc(Nc2ncc(C(F)(F)F)c(NCc3nccnc3N(C)S(C)(=O)=O)n2)cc1 [DEFACTINIB]
